The record followed here is PubChem BioAssay AID2640 (Southern Research Specialized Biocontainment Screening …, 2010).

Test [1] in a line: polymyxin susceptibility shift in S. Typhimurium, wild type vs phoP- strains, OD600 (AID 2640). The conditions noted are these: S. Typhimurium polymyxin resistance, OD600 growth, 24 h; for IC50 shift difference / IC50 shift: measured here: polymyxin IC50 shift, at 150 µM; for IC50 shift difference: WT minus phoP-.
In test [2] the test system is S. Typhimurium polymyxin resistance, OD600 growth, 24 h. Described as above.
Where [3] appears, read: WT strain, stronger effect = higher value.
The mark [4] stands for this setting: phoP- strain, stronger effect = lower value.
[5] abbreviates: WT polymyxin IC50 at 150 uM, stronger effect = lower value.
[6] abbreviates: phoP- polymyxin IC50 at 150 uM, stronger effect = lower value.

Calls of active or inactive are those of the source.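 The calls were made as follows: active = wild-type drop in polymyxin IC50 at top compound dose over twice that in the PhoP-lacking mutant; inactive = the rest.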

`CCn1cc(C(=O)O)c(=O)c2cc(F)c(N3CCN(C(=S)NC(=O)c4ccccc4Cl)CC3)cc21`: the IC50 shift difference in test [1] (stronger effect = higher value) is 10.3. The IC50 shift in test [1] (setting [3]) is 9.6; in test [1] (setting [4]), -0.66. Moreover, the IC50 (in general, the concentration at which inhibition is half-maximal) was 20 µM in test [2], 0.138 µM in test [2] (setting [5]) and 0.706 µM in test [2] (setting [6]).

For `Cc1ccc(Nc2cc(C)c3c(O)cccc3n2)cc1C`, the outcome in test [1] was inactive. For the same compound, the IC50 shift difference in test [1] (stronger effect = higher value) was found to be 2.63. Besides, the IC50 shift in test [1] (setting [3]) was 2.54; in test [1] (setting [4]) it was -0.09. Further, the IC50 worked out at 2.25 µM in test [2] (setting [5]) and 0.088 µM in test [2] (setting [6]).

`O=C1C2=C(Nc3ccccc3SC2c2ccco2)c2ccccc21` (centres undefined): in test [1] (stronger effect = higher value), the IC50 shift difference came out at 14.6. Besides, the results for the IC50 shift in test [1] (setting [3]) and in test [1] (setting [4]) were 18.2 and 3.6, respectively. Besides, the IC50 is 30 µM in test [2] and 0.04 µM in test [2] (setting [5]).

Take `COc1c(N2CCN(C(=S)NCc3ccccc3)C(C)C2)c(F)cc2c(=O)c(C(=O)O)cn(C3CC3)c12` (centres undefined): the IC50 shift difference in test [1] (stronger effect = higher value) was determined as 6.39. The IC50 shift in test [1] (setting [3]) worked out at 9.16; in test [1] (setting [4]), 2.76. Besides, the IC50 in test [2] is 10 µM; in test [2] (setting [6]) it was 0.677 µM.

With `S=C(NCc1ccc(Cl)cc1)Nc1ccncc1`, in test [1] (stronger effect = higher value), the IC50 shift difference came out at 20.4. In addition, the figures for the IC50 shift in test [1] (setting [3]) and in test [1] (setting [4]) were 3.93 and -16.4, respectively. Also, the results for the IC50 in test [2], in test [2] (setting [5]) and in test [2] (setting [6]) were 30 µM, 3.59 µM and 24 µM, respectively.

Regarding `O=C(Nc1ccc(Cl)cc1)N1CCCN(Cc2ccccc2F)C1`, the IC50 shift difference in test [1] (stronger effect = higher value) came out at 27.6. Besides, the values for the IC50 shift in test [1] (setting [3]) and in test [1] (setting [4]) were 5.14 and -22.4, respectively. For the same compound, the values for the IC50 in test [2], in test [2] (setting [5]) and in test [2] (setting [6]) were 30 µM, 0.62 µM and 26.9 µM, respectively.
